Experiment: mn = molality of the nth substance listed, in mol/kg
Conditions: Liquid, Vibrating tube method

[Br-].[Br-].[Zn+2] [zinc bromide] + CCO
Conditions | mass density [kg/m3]
373.14 K, 19874 kPa, m1 = 0.9305 | 872.91
373.14 K, 24846 kPa, m1 = 1.887 | 1005.15
373.14 K, 24985 kPa, m1 = 0.05681 | 753.48
373.14 K, 25624 kPa, m1 = 0.3043 | 790.48
373.14 K, 34851 kPa, m1 = 0.3043 | 799.55
373.14 K, 39921 kPa, m1 = 0.05681 | 767.81
373.15 K, 1032 kPa, m1 = 0.05681 | 723.97
373.15 K, 1228 kPa, m1 = 0.3043 | 761.13
373.15 K, 1745 kPa, m1 = 1.49 | 926.45
373.15 K, 4944 kPa, m1 = 0.4384 | 785.45
373.15 K, 5301 kPa, m1 = 1.49 | 931.02
373.15 K, 9796 kPa, m1 = 0.1696 | 752.88
373.15 K, 10025 kPa, m1 = 0.3043 | 772.61
373.15 K, 10059 kPa, m1 = 1.49 | 936.9
373.15 K, 14641 kPa, m1 = 0.1696 | 758.82
373.15 K, 14690 kPa, m1 = 0.9305 | 867.04
373.15 K, 14903 kPa, m1 = 0.4384 | 797.84
373.15 K, 15214 kPa, m1 = 1.49 | 942.98
373.15 K, 15627 kPa, m1 = 0.05681 | 742.91
373.15 K, 19954 kPa, m1 = 1.49 | 948.31
373.15 K, 20147 kPa, m1 = 0.3043 | 784.56
373.15 K, 24995 kPa, m1 = 0.9305 | 878.38
373.15 K, 25487 kPa, m1 = 1.49 | 954.2
373.15 K, 29987 kPa, m1 = 1.49 | 958.73
373.15 K, 30014 kPa, m1 = 0.05681 | 758.65
373.15 K, 34798 kPa, m1 = 0.4384 | 818.78
373.15 K, 35026 kPa, m1 = 1.49 | 963.54
373.15 K, 35841 kPa, m1 = 0.05681 | 764.21
373.15 K, 39669 kPa, m1 = 0.1696 | 784.45
373.15 K, 39689 kPa, m1 = 0.4384 | 823.15
373.15 K, 39845 kPa, m1 = 0.3043 | 804
373.15 K, 39954 kPa, m1 = 1.49 | 967.95
373.16 K, 5415 kPa, m1 = 0.3043 | 766.72
373.16 K, 10024 kPa, m1 = 0.05681 | 735.99
373.16 K, 15428 kPa, m1 = 0.3043 | 779.16
373.16 K, 29954 kPa, m1 = 0.3043 | 794.87
373.16 K, 34801 kPa, m1 = 0.1696 | 780.13
373.16 K, 34880 kPa, m1 = 1.887 | 1014.97
373.16 K, 34946 kPa, m1 = 0.9305 | 888.07
373.17 K, 1840 kPa, m1 = 0.9305 | 851.03
373.17 K, 5196 kPa, m1 = 0.9305 | 855.41
373.17 K, 9909 kPa, m1 = 0.9305 | 861.33
373.17 K, 19733 kPa, m1 = 0.1696 | 764.71
373.17 K, 19793 kPa, m1 = 0.4384 | 803.46
373.17 K, 20061 kPa, m1 = 0.05681 | 748.07
373.17 K, 29790 kPa, m1 = 0.9305 | 883.2
373.17 K, 39725 kPa, m1 = 1.887 | 1019.24
373.17 K, 39848 kPa, m1 = 0.9305 | 892.38
393.11 K, 5006 kPa, m1 = 0.1696 | 724.69
393.12 K, 5021 kPa, m1 = 1.887 | 958.47
393.12 K, 5106 kPa, m1 = 0.9305 | 833.37
393.12 K, 20028 kPa, m1 = 0.1696 | 745.51
393.12 K, 20063 kPa, m1 = 0.4384 | 784.5
393.12 K, 25074 kPa, m1 = 0.4384 | 790.6
393.12 K, 34785 kPa, m1 = 1.887 | 995.67
393.12 K, 34930 kPa, m1 = 0.4384 | 801.35
393.12 K, 39767 kPa, m1 = 1.887 | 1000.55
393.13 K, 9820 kPa, m1 = 0.4384 | 770.68
393.13 K, 19900 kPa, m1 = 1.887 | 978.73
393.13 K, 30105 kPa, m1 = 0.9305 | 865.29
393.13 K, 39972 kPa, m1 = 0.4384 | 806.21
393.14 K, 1801 kPa, m1 = 0.9305 | 828.39
393.14 K, 5624 kPa, m1 = 0.3043 | 745.3
393.14 K, 9870 kPa, m1 = 0.9305 | 840.24
393.14 K, 14926 kPa, m1 = 0.4384 | 777.8
393.14 K, 15321 kPa, m1 = 0.05681 | 722.2
393.14 K, 19767 kPa, m1 = 0.9305 | 853.32
393.14 K, 24945 kPa, m1 = 0.3043 | 771.16
393.14 K, 29892 kPa, m1 = 0.1696 | 757.28
393.14 K, 29921 kPa, m1 = 0.05681 | 740.47
393.14 K, 29972 kPa, m1 = 0.4384 | 796.15
393.15 K, 1241 kPa, m1 = 0.05681 | 701.02
393.15 K, 1627 kPa, m1 = 0.3043 | 739.2
393.15 K, 1798 kPa, m1 = 1.887 | 953.48
393.15 K, 1921 kPa, m1 = 1.49 | 903.69
393.15 K, 5026 kPa, m1 = 1.49 | 908.13
393.15 K, 10025 kPa, m1 = 0.3043 | 751.72
393.15 K, 10167 kPa, m1 = 0.1696 | 732.24
393.15 K, 10215 kPa, m1 = 0.05681 | 714.93
393.15 K, 10412 kPa, m1 = 1.49 | 915.55
393.15 K, 15026 kPa, m1 = 1.49 | 921.63
393.15 K, 19932 kPa, m1 = 0.05681 | 728.38
393.15 K, 20215 kPa, m1 = 1.49 | 928.15
393.15 K, 24815 kPa, m1 = 0.9305 | 859.38
393.15 K, 24872 kPa, m1 = 1.887 | 984.66
393.15 K, 25654 kPa, m1 = 1.49 | 934.64
393.15 K, 29841 kPa, m1 = 0.3043 | 776.76
393.15 K, 29885 kPa, m1 = 1.887 | 990.35
393.15 K, 29954 kPa, m1 = 1.49 | 939.52
393.15 K, 35014 kPa, m1 = 1.49 | 944.97
393.15 K, 39824 kPa, m1 = 0.05681 | 750.71
393.15 K, 39865 kPa, m1 = 0.3043 | 787.01
393.15 K, 39921 kPa, m1 = 1.49 | 949.96
393.15 K, 39924 kPa, m1 = 0.1696 | 767.7
393.16 K, 1957 kPa, m1 = 0.1696 | 720.03
393.16 K, 5064 kPa, m1 = 0.05681 | 707.12
393.16 K, 14857 kPa, m1 = 0.1696 | 738.74
393.16 K, 15924 kPa, m1 = 0.3043 | 759.83
393.16 K, 24739 kPa, m1 = 0.1696 | 751.32
393.16 K, 25067 kPa, m1 = 0.05681 | 734.81
393.16 K, 34854 kPa, m1 = 0.3043 | 782.09
393.16 K, 34855 kPa, m1 = 0.1696 | 762.63
393.16 K, 34890 kPa, m1 = 0.9305 | 870.24
393.16 K, 35621 kPa, m1 = 0.05681 | 746.57
393.16 K, 39922 kPa, m1 = 0.9305 | 875.04
393.17 K, 4784 kPa, m1 = 0.4384 | 763.23
393.17 K, 14838 kPa, m1 = 0.9305 | 847.01
393.17 K, 14975 kPa, m1 = 1.887 | 972.19
393.17 K, 19958 kPa, m1 = 0.3043 | 765.06
393.18 K, 10012 kPa, m1 = 1.887 | 965.38
393.19 K, 1568 kPa, m1 = 0.4384 | 758.24

From the NIST ThermoML archive (doi:10.1016/j.jct.2009.05.004)
